The values below come from patent US10617695B2, “Ophthalmic compositions containing alcaftadine” (Vistakon Pharmaceuticals, LLC, priority 2006, dated 2020).

A value given as a limit tells only on which side of the number the result lay.

In data set [1] the target is T1, human histamine H4 receptor (Homo sapiens, UniProt Q9H3N8).
T1 construct: express a reporter gene construct and the human H4 receptor full-coding region; expressed in transfected cells; host or cells: SK-N-MC cells with a CRE-beta-galactosidase reporter
T1 sequence (Q9H3N8 whole entry): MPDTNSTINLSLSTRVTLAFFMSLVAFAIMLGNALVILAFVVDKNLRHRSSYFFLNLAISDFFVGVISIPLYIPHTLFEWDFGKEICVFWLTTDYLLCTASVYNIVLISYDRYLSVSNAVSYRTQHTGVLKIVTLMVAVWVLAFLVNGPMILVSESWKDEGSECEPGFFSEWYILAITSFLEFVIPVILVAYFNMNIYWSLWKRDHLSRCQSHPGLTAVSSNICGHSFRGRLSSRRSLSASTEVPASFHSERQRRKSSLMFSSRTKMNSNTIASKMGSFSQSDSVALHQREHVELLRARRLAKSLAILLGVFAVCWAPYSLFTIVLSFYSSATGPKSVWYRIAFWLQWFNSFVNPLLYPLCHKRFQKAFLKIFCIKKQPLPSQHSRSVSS
Description: H4 receptor antagonist assay: shift of histamine EC50, Schild plot, in transfected SK-N-MC cells. The data set is classed as cell-based. The method, then:
Alcaftadine and 6,11-dihydro-11-(1-methyl-4-piperdinylidene)-5H-imidazo[2,1-b][3]benazepine-3-carboxylic acid (CAS #147083-93-0) were prepared at 10 mM in 100% dimethylsulfoxide (DMSO) for the binding assays and at 10 mM in Na/K phosphate buffer, pH 7.0, for the cellular assays. Cell pellets from SK-N-MC cells transfected with human H4 receptor were homogenized in 20 mM Tris-HCl/0.5 mM ethylendediaminetetraacetic acid (EDTA) pH 8.0 (TE buffer). Supernatants collected after centrifugation at 800 g were recentrifuged at 30,000 g for 30 min. Pellets were re-homogenized in TE buffer. […] Non-specific binding was defined with 100 μM cold histamine. […] Seven concentrations of compound were tested spanning 10^−11 to 10^−5 M with each concentration being run in triplicate. […] This assay was run twice and the results are reported as the average of the two runs. SK-N-MC cell lines were created that express a reporter gene construct and the human H4 receptor full-coding region. The reporter gene was β-galactosidase under the control of cyclic adenosine monophosphate (cAMP) responsive elements. Cells were plated in 96-well plates the night before the assay. Antagonists were added 10 min prior to the addition of histamine, which was added directly to the cell medium. Forskolin (5 μM final concentration) was added 10 min after the addition of histamine. Cells were returned to the incubator for 6 h at 37° C. The medium was then aspirated and cells were lysed with 25 μL of 0.1× assay buffer (10 mM sodium phosphate, pH 8, 0.2 mM MgSO4, 0.01 mM MnCl2) and incubated at room temperature for 10 min. […] Color was quantitated on a microplate reader at absorbance 570 nm. […]
To test whether alcaftadine or 6,11-dihydro-11-(1-methyl-4-piperdinylidene)-5H-imidazo[2,1-b][3]benazepine-3-carboxylic acid (CAS #147083-93-0) were antagonists of the H4 receptor, the ability of the compounds shift the EC50 of the histamine inhibition of forskolin-induced cAMP increases was assessed in SK-N-MC cells transfected with the human histamine H4 receptor. […]

Data set [2] has as its target T1, human histamine H4 receptor. Kind of data set: H4 receptor agonist assay: inhibition of forskolin-induced cAMP (reporter gene) in transfected SK-N-MC cells. The data set is classed as cell-based. As to the method:
Alcaftadine and 6,11-dihydro-11-(1-methyl-4-piperdinylidene)-5H-imidazo[2,1-b][3]benazepine-3-carboxylic acid (CAS #147083-93-0) were prepared at 10 mM in 100% dimethylsulfoxide (DMSO) for the binding assays and at 10 mM in Na/K phosphate buffer, pH 7.0, for the cellular assays. Cell pellets from SK-N-MC cells transfected with human H4 receptor were homogenized in 20 mM Tris-HCl/0.5 mM ethylendediaminetetraacetic acid (EDTA) pH 8.0 (TE buffer). Supernatants collected after centrifugation at 800 g were recentrifuged at 30,000 g for 30 min. Pellets were re-homogenized in TE buffer. […] Non-specific binding was defined with 100 μM cold histamine. […] Seven concentrations of compound were tested spanning 10^−11 to 10^−5 M with each concentration being run in triplicate. […] This assay was run twice and the results are reported as the average of the two runs. SK-N-MC cell lines were created that express a reporter gene construct and the human H4 receptor full-coding region. […] Color was quantitated on a microplate reader at absorbance 570 nm. […]
To test whether alcaftadine or 6,11-dihydro-11-(1-methyl-4-piperdinylidene)-5H-imidazo[2,1-b][3]benazepine-3-carboxylic acid (CAS #147083-93-0) were H4 receptor agonists, functional assays were carried out in SK-N-MC cells transfected with the human histamine H4 receptor. The ability of the compounds to inhibit forskolin-induced cAMP increases was assessed.
(A reporter such as luciferase makes a cellular process visible.)

For data set [3] the target is unchanged. Kind of data set: [3H]histamine competition binding to membranes of SK-N-MC cells transfected with human H4 receptor. To be noted: average of two runs; 10 nM [3H]histamine; Cheng and Prusoff.
In data set [4] the test system is RBL-CCR1 (Rat Basophil Leukemia-Chemokine Receptor-1) cell line. Description: Mast cell degranulation / cell stabilization in RBL-CCR1 cells. It counts as cell-based. As to the method:
The cell stabilization potential of alcaftadine was evaluated using the RBL-CCR1 (Rat Basophil Leukemia-Chemokine Receptor-1) cell line as a way of investigating its ability to effect mast cell stabilization. The use of basophil cell lines to assess anti-allergic drugs for cell stabilization potential is well established. Physiologically, basophils are similar to mast cells, containing pre-formed inflammatory mediators that are released through a similar degranulation process involving IgE cross-linking. Because these cell lines are readily available, they present efficiencies over conducting stabilization assays in mast cell lines.
Cultured RBL-CCR1 cells were sensitized to anti-DNP IgE. Following sensitization, cells were treated with various concentrations of alcaftadine or its major active metabolite (0.083%, 0.0083% and 0.00083%) or ophthalmic vehicle (placebo), and stimulated with DNP and/or MIP-1a (Macrophage Inflammatory Protein-1 alpha, a degranulation enhancer) to induce degranulation. A 10× and 100× placebo control solution (ophthalmic vehicle solution) in D-DEM (Dulbecco's modified Eagle's medium) was also employed.
However, co-stimulation induced a robust degranulation response.

Data set [5] is described as follows: Systemic (plasma) levels of the carboxylic acid in patients. It counts as in vivo, human. Particulars: for Cmax: plasma, other: ophthalmic solution, bilateral instillation, 0.25 % ophthalmic solution, 0.25% ophthalmic solution bilaterally. As to the method: Patients were bilaterally dosed with 0.25% ophthalmic solutions of 6,11-dihydro-11-(1-methyl-4-piperdinylidene)-5H-imidazo[2,1-b][3]benazepine-3-carboxylic acid for seven days. The plasma levels of those patients was assessed pre-dose, and 0.25, 0.5, 1, 1.5, 2, 3, 4, 6, 8, 12, and 18 hour post medication instillation on days one and seven.

By Ki is commonly meant the dissociation constant of the complex between target and ligand, obtained from inhibition or displacement. Higher therefore signals a looser hold on the target. One may read the Cmax as the maximum level reached in the sampled fluid or tissue. With `CN1CCC(=C2c3ccccc3CCn3c(C(=O)O)cnc32)CC1` [6,11-dihydro-11-(1-methyl-4-piperdinylidene)-5H-imidazo[2,1-b][3]benazepine-3-carboxylic acid], the “antagonist activity: shift of histamine EC50 (highest concentration without shift)” value in data set [1] was over 100 µM. Moreover, the EC50 in data set [2] (absence of histamine, read-out: agonist activity: inhibition of forskolin-induced cAMP levels (highest concentration without agonism)) is over 100 µM. Further, the inhibition constant (Ki) in data set [3] was over 10 µM. Besides, in data set [4], the overall membrane stabilization result is “effective membrane stabilizing agents”. Moreover, the “stabilization effect added to that of placebo” value in data set [4] (10× dose level) was “enhanced the stabilization effect”. For the same compound, the “degranulation at the highest concentration” value in data set [4] ([…], DNP-HSA alone, MIP-1a alone, and co-stimulation) is “unanticipated and significant degranulation”. The “cell stabilization compared to co-stimulation control and negative controls (placebo 10× and placebo 100×)” value in data set [4] (co-stimulation assay, concentrations of […] and […], p<0.0001 for both concentrations) is recorded as “superior at cell stabilization”. This compound displayed a maximum plasma concentrations in data set [5] (human, in vivo) of 7.23 ng/mL. The highest concentration (Cmax) stood at 3.23 ng/mL in data set [5] (human, Day 1) and 2.71 ng/mL in data set [5] (human, Day 7). The “time by which plasma concentrations declined to below the lower limit of quantification” value in data set [5] (post dosing, lower limit of quantification 0.1 ng/mL) is at most 12 h.

In the case of `NCCc1c[nH]cn1` [histamine, reference compound], the “agonist activity: inhibition of forskolin-induced cAMP levels” value in data set [2] is recorded as “agonist”.
